This test has as its target T1, CYP26A1 (Homo sapiens, UniProt O43174).
T1 sequence (O43174 1-497): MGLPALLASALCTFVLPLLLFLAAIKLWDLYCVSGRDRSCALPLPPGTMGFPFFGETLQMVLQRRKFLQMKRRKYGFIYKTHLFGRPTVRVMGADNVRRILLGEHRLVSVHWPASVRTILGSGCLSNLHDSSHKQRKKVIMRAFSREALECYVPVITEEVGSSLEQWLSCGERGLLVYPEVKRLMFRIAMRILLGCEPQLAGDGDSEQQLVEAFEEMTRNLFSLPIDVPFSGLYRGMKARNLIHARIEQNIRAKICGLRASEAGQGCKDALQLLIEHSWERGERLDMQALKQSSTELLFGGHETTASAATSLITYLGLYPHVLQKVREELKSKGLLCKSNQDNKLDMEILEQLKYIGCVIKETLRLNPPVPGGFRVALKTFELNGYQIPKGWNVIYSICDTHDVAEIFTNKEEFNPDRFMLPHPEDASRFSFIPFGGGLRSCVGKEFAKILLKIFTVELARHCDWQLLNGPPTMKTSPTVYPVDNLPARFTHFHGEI
Nature of the test: spectral titration. In kind it is binding.

Turning to `CC1=C(/C=C/C(C)=C/C=C/C(C)=C/C(=O)O)C(C)(C)CCC1` [RA, all-trans-retinoic acid], binding was put at a Kd of 0.529 µM.

These data come from publication PMC2829272 (Biochemical pharmacology, 2008).
